Experiments:
human cyclin E-CDK2 = human cyclin E-CDK2 (Homo sapiens, UniProt P24941); test: FlashPlate kinase assay, cyclin E-CDK2, Rb substrate; type: biochemical; details: recombinant cyclin E-CDK2, Rb phosphorylation, 1 μM ATP
Experimental: (§1) To determine inhibition of Cdk4, Cdk2 and Cdk1 activity, kinase assays were conducted using FlashPlate™ assays (NEN™-Life Science Products). FlashPlate assays were performed using recombinant human cyclin B-CDK1, human cyclin E-CDK2 or human cyclin D1-CDK4 complexes. GST-cyclinE (GST-cycE), CDK2, GST-cyclinB (GST-cycB), CDK1, GST-CDK4 and cyclin D1 (cycD1) cDNA clones in baculovirus vectors were provided by Dr. W. Harper at the Baylor College of Medicine, Houston, Tex. Proteins were co-expressed in High Five™ insect cells and the complex was purified on glutathione Sepharose resin (Pharmacia, Piscataway, N.J.) as previously described (Harper, J. W. et al. Cell 1993, 75, 805-816). A 6×-Histidine tagged truncated form of retinoblastoma (Rb) protein (amino acid 386-928) was used as the substrate for the cycD1-CDK4, cycB-CDK1 and the cycE-CDK2 assays (the expression plasmid was provided by Dr. Veronica Sullivan, Department of Molecular Virology, Roche Research Centre, Welwyn Garden City, United Kingdom). The Rb protein is a natural substrate for phosphorylation by CDK4, CDK2 and CDK1 (see Herwig and Strauss Eur. J. Biochem. Vol. 246 (1997) pp. 581-601 and the references cited therein).
(§2) The expression of the 62 Kd protein was under the control of an IPTG inducible promoter in an M15 E. coli strain. Cells were lysed by sonication and purification was carried out by binding lysates at pH 8.0 to a Ni-chelated agarose column pretreated with 1 mM imidazole. The resin was then washed several times with incrementally decreasing pH buffers to pH 6.0, and eluted with 500 mM imidazole. Eluted protein was dialysed against 20 mM HEPES pH 7.5, 30% glycerol, 200 mM NaCl, and 1 mM DTT. Purified Rb fusion protein stocks were quantitated for protein concentration, aliquoted, and stored at −70° C.
(§3) For all three kinase assays reported herein, 96-well FlashPlates were coated with Rb protein at 10 μg/ml, using 100 μl per well. Plates were incubated at 4° C. overnight or at room temperature for 3 hours on a shaker. To control for nonspecific phosphorylation, one row of wells was coated with 100 μl/well coating buffer (20 mM HEPES, 0.2 M NaCl). Plates were then washed twice with wash buffer (0.01% Tween 20 in phosphate-buffered saline). Compounds to be tested (“test compounds”) were added to the wells at 5×final concentration. Reactions were initiated by immediate addition of 40 μl reaction mix (25 mM HEPES, 20 mM MgCl2, 0.002% Tween 20, 2 mM DTT, 1 μM ATP, 4 nM ^33P-ATP) and a sufficient amount of enzyme to give counts that were at least 10-fold above background. Plates were incubated at room temperature on a shaker for 30 minutes. Plates were washed four times with the wash buffer, sealed, and counted on the TopCount scintillation counter (Packard Instrument Co., Downers Grove, Ill.]. The percent inhibition of Rb phosphorylation, which is a measure of the inhibition of CDK activity, was determined according to the following formula: [formula]
(§4) where “test compound” refers to the average counts per minute of the test duplicates, “nonspecific” refers to the average counts per minute when no CyclinD/Cdk4, etc., was added, and “total” refers to the average counts per minute when no compound was added. The IC50 value is the concentration of test compound that reduces by 50% the protein-kinase induced incorporation of the radiolabel under the test conditions described.

human cyclin D1-CDK4 = human cyclin D1-CDK4 (Homo sapiens, UniProt P11802); test: FlashPlate kinase assay, cyclin D1-CDK4, Rb substrate; type: biochemical; details: recombinant cyclin D1-CDK4, Rb phosphorylation, 1 μM ATP
Experimental: as §1, §2, §3, §4

[1] = tested on: HCT116, a colorectal carcinoma cell line; test: Tetrazolium dye proliferation assay (MTT assay); type: cell-based; details: inhibition of cell proliferation
Experimental: Proliferation was evaluated by the tetrazolium dye assay according to the procedure of Denizot and Lang (Denizot, F. and Lang, R. J Immunol Methods 1986, 89, 271-277). The cell line used was HCT116, a colorectal carcinoma cell line obtained from the American Type Cell Culture Collection (ATCC; Rockville, Md.). The cells were grown in McCoy's 5A medium supplemented with 10% FCS and L-glutamine.
Cells were plated at the appropriate seeding density to give logarithmic growth over the course of the assay in a 96-well tissue culture plate. Plates were incubated overnight at 37° C. in a humidified incubator with 5% CO2. The next day, test compounds were serially diluted to four times the final concentration in the appropriate medium containing 1.2% DMSO. One-fourth final volume of each dilution was added in duplicate to the plates containing cells. The same volume of 1.2% DMSO in medium was added to a row of “control wells” such that the final concentration of DMSO in each well was 0.3%. Wells to which no cells were added served as the “blank.” Wells to which no inhibitor was added served as “no inhibitor control.” The plates were) returned to the incubator, and at set time points (determined by their growth curves) plates were analyzed as described below.
3-(4,5-dimethylthiazole-2-yl)-2,5-diphenyl-2H-tetrazolium bromide (thiazolyl blue; MTT; Sigma) was added to each well to yield a final concentration of 1 mg/ml. Plates were returned to the incubator for 2.5-3 hours at 37° C. The MTT-containing medium was removed and the resulting formazan metabolite was solubilized in 100% ethanol with shaking for 15 minutes at room temperature. Absorbance readings were taken in a microtiter plate reader (Dynatech and Molecular Devices plate readers were used interchangeably) at a wavelength of 570 nm with a 650 nm reference. Percent inhibition (% INH) is calculated by subtracting the absorbance of the blank well from all wells, then subtracting the ratio of the average absorbance of each test duplicate (SAVE) by the average of the controls (CAVE) from 1.00. The final number is then multiplied by 100 (% INH=(1.00−SAVE/CAVE)×100). The concentration at which 50% inhibition of cell proliferation is obtained (the IC50) is determined from the linear regression of a plot of the logarithm of the concentration versus percent inhibition.

human cyclin B-CDK1 = human cyclin B-CDK1 (Homo sapiens, UniProt P06493); test: FlashPlate kinase assay, cyclin B-CDK1, Rb substrate; type: biochemical; details: recombinant cyclin B-CDK1, Rb phosphorylation, 1 μM ATP
Experimental: as §1, §2, §3, §4

[2] = Homo sapiens, HCT-116, HCT116 cells

Chain of human cyclin B-CDK1 (P06493 whole entry): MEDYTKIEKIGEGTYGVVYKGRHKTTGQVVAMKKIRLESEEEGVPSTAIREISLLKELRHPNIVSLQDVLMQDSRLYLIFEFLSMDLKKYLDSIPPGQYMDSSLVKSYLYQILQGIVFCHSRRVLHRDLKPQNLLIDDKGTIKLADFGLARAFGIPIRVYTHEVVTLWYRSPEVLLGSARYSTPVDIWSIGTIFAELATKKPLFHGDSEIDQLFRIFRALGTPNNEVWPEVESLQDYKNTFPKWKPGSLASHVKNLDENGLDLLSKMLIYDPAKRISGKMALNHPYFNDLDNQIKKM
Chain of human cyclin B-CDK1 (P14635 whole entry partner): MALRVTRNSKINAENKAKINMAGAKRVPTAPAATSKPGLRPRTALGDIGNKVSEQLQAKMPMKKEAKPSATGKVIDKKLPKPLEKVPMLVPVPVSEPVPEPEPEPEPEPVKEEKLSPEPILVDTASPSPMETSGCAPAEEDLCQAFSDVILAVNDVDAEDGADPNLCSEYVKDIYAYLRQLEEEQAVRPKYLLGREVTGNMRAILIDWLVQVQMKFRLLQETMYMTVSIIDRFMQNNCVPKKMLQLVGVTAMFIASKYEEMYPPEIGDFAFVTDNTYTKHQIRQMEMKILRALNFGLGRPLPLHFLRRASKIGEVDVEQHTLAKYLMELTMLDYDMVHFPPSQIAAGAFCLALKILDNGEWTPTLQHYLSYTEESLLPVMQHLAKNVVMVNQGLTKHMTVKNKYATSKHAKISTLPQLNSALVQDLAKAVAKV
Chain of human cyclin D1-CDK4 (P11802 whole entry): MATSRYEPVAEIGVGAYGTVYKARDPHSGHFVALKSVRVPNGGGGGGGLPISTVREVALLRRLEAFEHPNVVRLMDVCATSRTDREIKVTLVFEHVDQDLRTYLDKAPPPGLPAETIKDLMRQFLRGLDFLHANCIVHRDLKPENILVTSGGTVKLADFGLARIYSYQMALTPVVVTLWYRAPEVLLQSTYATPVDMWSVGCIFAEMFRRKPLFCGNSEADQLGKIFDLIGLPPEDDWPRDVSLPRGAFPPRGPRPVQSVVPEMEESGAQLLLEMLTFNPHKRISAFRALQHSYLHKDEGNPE
Chain of human cyclin D1-CDK4 (P24385 whole entry partner): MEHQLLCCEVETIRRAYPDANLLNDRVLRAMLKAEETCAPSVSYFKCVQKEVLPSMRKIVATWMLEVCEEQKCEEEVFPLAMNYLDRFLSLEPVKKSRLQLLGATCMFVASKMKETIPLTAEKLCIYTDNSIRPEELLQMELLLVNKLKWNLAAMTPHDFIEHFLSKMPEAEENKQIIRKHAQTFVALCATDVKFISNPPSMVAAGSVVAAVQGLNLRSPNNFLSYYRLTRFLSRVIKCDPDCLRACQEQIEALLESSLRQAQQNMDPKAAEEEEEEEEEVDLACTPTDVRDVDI

IC50 (human cyclin E-CDK2)	IC50 (human cyclin D1-CDK4)	IC50 [1, 2]	IC50 (human cyclin B-CDK1)	IC50 ([1]; HCT116 cells)	Structure (SMILES)
3170 nM	43 nM	3700 nM	1130 nM		CCc1ccc(C(=O)c2sc(Nc3ccc(OCCN4CCCC4)cc3)nc2N)cc1F [Example 6, [4-Amino-2-[4-(2-pyrrolidin-1-yl-ethoxy)-phenylamino]-thiazol-5-yl]-(4-ethyl-3-fluoro-phenyl)-methanone; Compound With Trifluoroacetic Acid]
800 nM	27 nM		338 nM	477 nM	Nc1nc(Nc2ccc(OCCN3CCCC3)cc2)sc1C(=O)c1cccc(F)c1 [Example 36, [4-Amino-2-[4-(2-pyrrolidin-1-yl-ethoxy)-phenylamino]-thiazol-5-yl]-(3-fluoro-phenyl)-methanone]
892 nM	32 nM	520 nM	126 nM		CN(C)CCOc1ccc(Nc2nc(N)c(C(=O)c3cccc(F)c3)s2)cc1 [Example 37, [4-Amino-2-[4-(2-dimethylamino-ethoxy)-phenylamino]-thiazol-5-yl]-(3-fluoro-phenyl)-methanone]
1380 nM	97 nM	436 nM	576 nM		CC(COc1ccc(Nc2nc(N)c(C(=O)c3cccc(F)c3)s2)cc1)N(C)C (stereo not drawn) [Example 38, [4-Amino-2-[4-(2-dimethylamino-propoxy)-phenylamino]-thiazol-5-yl]-(3-fluoro-phenyl)-methanone]
	43 nM	3700 nM	884 nM		CN(C)CCOc1ccc(Nc2nc(N)c(C(=O)c3ccc4c(c3)OCCO4)s2)cc1 [Example 58, [4-Amino-2-[4-(2-dimethylamino-ethoxy)-phenylamino]-thiazol-5-yl]-(2,3-dihydro-benzo[1,4]dioxin-6-yl)-methanone]
	63 nM	3690 nM	3890 nM		CCc1cc(C(=O)c2sc(Nc3ccc(OCCN4CCCC4)cc3)nc2N)ccc1F [Example 76, [4-Amino-2-[4-(2-pyrrolidin-1-yl-ethoxy)-phenylamino]-thiazol-5-yl]-(3-ethyl-4-fluoro-phenyl)-methanone]
	80 nM	4400 nM	7800 nM		CCc1cc(C(=O)c2sc(Nc3ccc(OC[C@@H](C)N(C)C)cc3)nc2N)ccc1F [Example 77, (R)-[4-Amino-2-[4-(2-dimethylamino-propoxy)-phenylamino]-thiazol-5-yl]-(3-ethyl-4-fluoro-phenyl)-methanone]
6400 nM	55 nM	4240 nM			CCc1cc(C(=O)c2sc(Nc3ccc(OC4CCCN(CC)C4)cc3)nc2N)ccc1F (stereo not drawn) [Example 81, [4-Amino-2-[4-(1-ethyl-piperidin-3-yloxy)-phenylamino]-thiazol-5-yl]-(3-ethyl-4-fluoro-phenyl)-methanone]
158 nM	38 nM		174 nM		CCCc1cc(C(=O)c2sc(Nc3ccc(OC4CCCNC4)cc3)nc2N)ccc1O (stereo not drawn) [Example 99, [4-Amino-2-[4-(piperidin-3-yloxy)-phenylamino]-thiazol-5-yl]-(4-hydroxy-3-propyl-phenyl)-methanone]
272 nM	17 nM		344 nM		CCCc1cc(C(=O)c2sc(Nc3ccc(OCCN(C)C)cc3)nc2N)ccc1O [Example 106, [4-Amino-2-[4-(2-dimethylamino-ethoxy)-phenylamino]-thiazol-5-yl-](4-hydroxy-3-propyl-phenyl)-methanone; Compound With Acetic Acid]
2990 nM	86 nM		1560 nM		Cc1cccc(C(=O)c2sc(Nc3ccc(OC[C@@H]4CCCN4C)cc3)nc2N)c1 [Example 111, (S)-[4-Amino-2-[4-(1-methyl-pyrrolidin-2-ylmethoxy)-phenylamino]-thiazol-5-yl]-m-tolyl-methanone]
	44 nM	7290 nM	1930 nM		CCNCCOc1ccc(Nc2nc(N)c(C(=O)c3ccc4c(c3)OCCO4)s2)cc1 [Example 134, [4-Amino-2-[4-(2-ethylamino-ethoxy)-phenylamino]-thiazol-5-yl]-(2,3-dihydro-benzo[1,4]dioxin-6-yl)-methanone]
	45 nM	5090 nM	1760 nM		CC(C)NCCOc1ccc(Nc2nc(N)c(C(=O)c3ccc4c(c3)OCCO4)s2)cc1 [Example 136, [4-Amino-2-[4-(2-isopropylamino-ethoxy)-phenylamino]thiazol-5-yl]-(2,3-dihydro-benzo[1,4]dioxin-6-yl)-methanone]
	63 nM	4630 nM			CC1COc2ccc(C(=O)c3sc(Nc4ccc(OCCN5CCCC5)cc4)nc3N)cc21 (stereo not drawn) [Example 140, [4-Amino-2-[4-(2-pyrrolidin-1-yl-ethoxy)-phenylamino]-thiazol-5-yl]-(3-methyl-2,3-dihydro-benzofuran-5-yl)-methanone]
3020 nM	91 nM		2360 nM		CCNCCOc1ccc(Nc2nc(N)c(C(=O)c3ccc4c(c3)CCO4)s2)cc1 [Example 143, [4-Amino-2-[4-(2-ethylamino-ethoxy)-phenylamino]-thiazol-5-yl]-(2,3-dihydro-benzofuran-5-yl)-methanone]
1730 nM	97 nM		578 nM		COc1ccc(C(=O)c2sc(Nc3ccc(OCCCN)cc3)nc2N)cc1F [Example 147, [4-Amino-2-[4-(3-amino-propoxy)-phenylamino]-thiazol-5-yl]-(3-fluoro-4-methoxy-phenyl)-methanone]
1910 nM	67 nM		519 nM		CCNCCCOc1ccc(Nc2nc(N)c(C(=O)c3ccc(OC)c(F)c3)s2)cc1 [Example 148, [4-Amino-2-[4-(3-ethylamino-propoxy)-phenylamino]-thiazol-5-yl]-(3-fluoro-4-methoxy-phenyl)methanone]
